{"source": "patent US7432392B2", "about": "“Ester derivatives and medical use thereof” (Japan Tobacco Inc., priority 2003, dated 2008)", "key": {"[1]": {"experiment": "Metabolic stability test in small intestine S9 (human)", "assay_type": "in vitro ADME", "conditions": "Human small intestine S9, 2 mg protein/mL, 37° C.", "experimental": "(§1) Human and hamster liver S9 (final concentration: 2 mg protein/mL), and human and hamster small intestine S9 (final concentration: 2 mg protein/mL) were each suspended in 100 mM potassium phosphate buffer (pH 7.4, containing β-nicotinamide adenine dinucleotide phosphate: 1.3 mM, D-glucose-6-phosphate: 3.3 mM, magnesium chloride: 3.3 mM, and glucose-6-phosphate dehydrogenase: 0.4 U/mL). The suspensions were mixed with a solution of a sample (Example 1) in DMSO. The solutions were incubated at 37° C. for 0, 10 and 60 minutes, and an organic solvent was added thereto. The solutions were centrifuged, and the concentration of the sample (unchanged form) in the supernatant was determined by high performance liquid chromatography/mass spectrometry (LC/MS). Based on the data obtained, remaining rate (%) was calculated according to the following equation. Remaining rate(%)=amount of sample 10 or 60 minutes after incubation/amount of sample at zero time after incubation×100"}, "[2]": {"experiment": "Metabolic stability test in small intestine S9 (hamster)", "assay_type": "in vitro ADME", "conditions": "Hamster small intestine S9, 2 mg protein/mL, 37° C.", "experimental": "as §1"}, "[3]": {"target": "T1, Microsomal triglyceride transfer protein (MTP) from bovine liver (Bos taurus, UniProt P55156)", "T1 construct": "the purified MTP was used for the test; from tissue; host or cells: bovine liver", "T1 sequence (P55156 12-887)": "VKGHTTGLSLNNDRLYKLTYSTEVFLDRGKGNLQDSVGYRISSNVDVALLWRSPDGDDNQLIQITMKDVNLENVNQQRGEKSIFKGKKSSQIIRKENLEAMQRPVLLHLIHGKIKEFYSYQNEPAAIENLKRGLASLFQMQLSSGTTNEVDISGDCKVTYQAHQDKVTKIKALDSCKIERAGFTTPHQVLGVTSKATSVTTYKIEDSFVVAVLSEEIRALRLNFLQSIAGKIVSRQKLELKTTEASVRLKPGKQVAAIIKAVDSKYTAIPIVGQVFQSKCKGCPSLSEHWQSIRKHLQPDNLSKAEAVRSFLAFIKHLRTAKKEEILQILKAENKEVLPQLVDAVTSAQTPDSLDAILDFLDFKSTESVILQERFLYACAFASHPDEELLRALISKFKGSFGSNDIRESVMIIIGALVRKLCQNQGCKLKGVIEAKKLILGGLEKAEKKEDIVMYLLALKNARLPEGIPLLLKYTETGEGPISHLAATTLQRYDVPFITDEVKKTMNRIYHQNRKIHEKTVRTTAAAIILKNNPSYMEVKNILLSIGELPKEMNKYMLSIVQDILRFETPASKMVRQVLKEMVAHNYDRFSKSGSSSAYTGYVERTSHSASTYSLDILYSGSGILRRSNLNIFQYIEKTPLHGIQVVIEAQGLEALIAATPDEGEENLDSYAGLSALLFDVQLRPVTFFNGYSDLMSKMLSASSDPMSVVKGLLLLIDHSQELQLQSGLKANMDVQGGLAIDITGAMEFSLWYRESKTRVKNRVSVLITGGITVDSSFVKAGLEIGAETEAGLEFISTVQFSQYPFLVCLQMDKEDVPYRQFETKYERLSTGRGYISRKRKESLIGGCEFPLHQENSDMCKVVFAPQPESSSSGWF", "T1 sequence (P05307 21-510 partner)": "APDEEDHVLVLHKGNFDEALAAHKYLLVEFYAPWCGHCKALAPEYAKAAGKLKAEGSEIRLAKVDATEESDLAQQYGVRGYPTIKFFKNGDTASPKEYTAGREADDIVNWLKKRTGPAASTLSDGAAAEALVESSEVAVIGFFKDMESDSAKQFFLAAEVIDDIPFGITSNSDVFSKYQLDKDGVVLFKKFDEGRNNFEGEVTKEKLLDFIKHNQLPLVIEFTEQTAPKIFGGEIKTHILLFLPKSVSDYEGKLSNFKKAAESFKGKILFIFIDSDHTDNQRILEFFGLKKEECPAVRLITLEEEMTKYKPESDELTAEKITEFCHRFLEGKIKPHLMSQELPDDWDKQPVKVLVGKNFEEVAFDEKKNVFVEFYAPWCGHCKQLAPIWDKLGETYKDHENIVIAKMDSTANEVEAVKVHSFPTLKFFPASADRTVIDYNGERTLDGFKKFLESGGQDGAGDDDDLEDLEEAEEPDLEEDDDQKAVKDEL", "experiment": "Inhibition of interliposomal triglyceride (TG) transfer activity by MTP", "assay_type": "biochemical", "conditions": "MTP-mediated TG transfer between donor and acceptor liposomes, 37° C., one hour", "in_short": "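Partially purified bovine liver MTP (DEAE chromatography) was incubated 1 h at 37° C with ^14C-triolein donor SUV liposomes and unlabeled acceptor liposomes in pH 7.4 Tris buffer with 0.5% BSA. Donor was removed with DEAE cellulose and acceptor radioactivity counted. IC50 came from blank-corrected inhibition relative to DMSO.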"}}}
{"compound": "CCOC(=O)C(COC(=O)Cc1ccc(NC(=O)c2ccccc2-c2ccc(C(F)(F)F)cc2)c(OC(C)=O)c1)(C(=O)OCC)c1ccccc1", "note": "[Example 1, 2-(2-{3-acetoxy-4-[(4′-trifluoromethyl-biphenyl-2-carbonyl)amino]phenyl}acetoxymethyl)-2-phenylmalonic acid diethyl ester]", "values": [{"measurement": "Remaining rate (%) after 10 minutes", "setting": "[1]; 10 minutes", "result": 7.5, "unit": "%"}, {"measurement": "Remaining rate (%) after 60 minutes", "setting": "[1]; 60 minutes", "result": 1.1, "unit": "%"}, {"measurement": "Remaining rate (%) after 10 minutes", "setting": "[2]; 10 minutes", "result": 4.1, "unit": "%"}, {"measurement": "Remaining rate (%) after 60 minutes", "setting": "[2]; 60 minutes", "result": 0.0, "unit": "%"}, {"measurement": "IC50", "setting": "[3]", "result": "< 0.01", "unit": "µM"}]}
